What was measured:
[1] = biological target: T1, Muscarinic acetylcholine receptor M2 (Homo sapiens, UniProt P08172); type: functional, cell-based
T1 sequence (P08172 whole entry): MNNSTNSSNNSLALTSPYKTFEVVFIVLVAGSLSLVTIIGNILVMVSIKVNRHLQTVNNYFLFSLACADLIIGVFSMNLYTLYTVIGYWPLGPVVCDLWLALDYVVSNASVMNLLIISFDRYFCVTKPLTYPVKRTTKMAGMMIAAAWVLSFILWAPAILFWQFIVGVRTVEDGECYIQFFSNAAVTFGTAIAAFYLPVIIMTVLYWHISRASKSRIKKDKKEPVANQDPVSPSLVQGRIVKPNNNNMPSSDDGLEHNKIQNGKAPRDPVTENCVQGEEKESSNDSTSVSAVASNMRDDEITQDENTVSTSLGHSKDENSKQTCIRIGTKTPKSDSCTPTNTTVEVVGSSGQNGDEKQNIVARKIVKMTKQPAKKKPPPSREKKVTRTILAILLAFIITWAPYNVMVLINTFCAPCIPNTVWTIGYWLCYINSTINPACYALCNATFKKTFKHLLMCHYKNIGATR

[2] = biological target: T2, B2 bradykinin receptor (Homo sapiens, UniProt P30411)
T2 sequence (P30411 whole entry): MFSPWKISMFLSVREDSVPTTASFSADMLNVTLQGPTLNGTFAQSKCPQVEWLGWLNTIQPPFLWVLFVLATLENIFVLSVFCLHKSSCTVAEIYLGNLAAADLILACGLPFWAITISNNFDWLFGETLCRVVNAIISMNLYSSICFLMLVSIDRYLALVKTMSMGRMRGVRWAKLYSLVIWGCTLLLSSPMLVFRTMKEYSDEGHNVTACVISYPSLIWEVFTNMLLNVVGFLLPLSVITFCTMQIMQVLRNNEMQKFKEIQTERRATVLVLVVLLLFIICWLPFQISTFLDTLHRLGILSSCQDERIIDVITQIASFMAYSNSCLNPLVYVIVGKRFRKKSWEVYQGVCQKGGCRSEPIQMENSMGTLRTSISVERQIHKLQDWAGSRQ

[3] = biological target: D(3) dopamine receptor (Homo sapiens, UniProt P35462)
D(3) dopamine receptor, sequence (P35462 whole entry): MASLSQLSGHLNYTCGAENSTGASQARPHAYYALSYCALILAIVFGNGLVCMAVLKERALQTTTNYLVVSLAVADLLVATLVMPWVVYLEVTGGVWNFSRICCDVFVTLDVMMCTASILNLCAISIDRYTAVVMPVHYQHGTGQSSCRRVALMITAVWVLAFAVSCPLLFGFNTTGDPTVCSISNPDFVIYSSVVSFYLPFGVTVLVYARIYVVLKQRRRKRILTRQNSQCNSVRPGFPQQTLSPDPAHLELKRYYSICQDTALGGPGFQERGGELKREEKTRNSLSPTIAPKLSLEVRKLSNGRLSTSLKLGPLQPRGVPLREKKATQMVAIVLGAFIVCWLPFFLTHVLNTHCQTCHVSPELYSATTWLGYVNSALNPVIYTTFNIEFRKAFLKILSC

[4] = biological target: T3, 5-hydroxytryptamine receptor 1A (Homo sapiens, UniProt P08908); type: functional, cell-based
T3 sequence (P08908 whole entry): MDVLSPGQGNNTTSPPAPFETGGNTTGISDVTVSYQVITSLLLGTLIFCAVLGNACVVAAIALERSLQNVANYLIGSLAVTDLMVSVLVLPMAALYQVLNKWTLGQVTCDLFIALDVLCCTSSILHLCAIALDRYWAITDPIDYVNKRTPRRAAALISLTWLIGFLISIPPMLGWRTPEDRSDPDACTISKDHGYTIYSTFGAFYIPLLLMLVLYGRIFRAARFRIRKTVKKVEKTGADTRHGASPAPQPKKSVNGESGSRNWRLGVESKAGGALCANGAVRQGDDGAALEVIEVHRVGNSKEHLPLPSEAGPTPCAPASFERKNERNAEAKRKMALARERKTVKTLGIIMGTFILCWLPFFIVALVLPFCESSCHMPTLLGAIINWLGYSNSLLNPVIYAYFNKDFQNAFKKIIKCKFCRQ

[5] = biological target: T4, Prostaglandin G/H synthase 1 (Rattus norvegicus, UniProt Q63921); type: functional
T4 sequence (Q63921 whole entry): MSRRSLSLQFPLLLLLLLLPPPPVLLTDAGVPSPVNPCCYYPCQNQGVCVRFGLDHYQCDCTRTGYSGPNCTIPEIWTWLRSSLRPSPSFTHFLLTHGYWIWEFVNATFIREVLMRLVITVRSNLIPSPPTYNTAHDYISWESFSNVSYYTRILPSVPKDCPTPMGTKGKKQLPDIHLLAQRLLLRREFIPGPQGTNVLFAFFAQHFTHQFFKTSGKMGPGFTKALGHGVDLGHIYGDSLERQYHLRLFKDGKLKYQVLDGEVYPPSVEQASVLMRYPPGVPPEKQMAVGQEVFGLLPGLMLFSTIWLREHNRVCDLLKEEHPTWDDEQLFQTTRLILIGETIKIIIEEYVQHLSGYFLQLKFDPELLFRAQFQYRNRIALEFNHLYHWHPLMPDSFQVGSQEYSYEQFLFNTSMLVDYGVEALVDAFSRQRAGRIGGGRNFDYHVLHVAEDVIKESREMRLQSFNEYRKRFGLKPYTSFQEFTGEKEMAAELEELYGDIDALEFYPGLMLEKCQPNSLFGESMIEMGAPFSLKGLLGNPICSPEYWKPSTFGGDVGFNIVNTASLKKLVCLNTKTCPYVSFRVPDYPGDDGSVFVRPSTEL

[6] = biological target: Motilin receptor (Homo sapiens, UniProt O43193)
Motilin receptor, sequence (O43193 whole entry): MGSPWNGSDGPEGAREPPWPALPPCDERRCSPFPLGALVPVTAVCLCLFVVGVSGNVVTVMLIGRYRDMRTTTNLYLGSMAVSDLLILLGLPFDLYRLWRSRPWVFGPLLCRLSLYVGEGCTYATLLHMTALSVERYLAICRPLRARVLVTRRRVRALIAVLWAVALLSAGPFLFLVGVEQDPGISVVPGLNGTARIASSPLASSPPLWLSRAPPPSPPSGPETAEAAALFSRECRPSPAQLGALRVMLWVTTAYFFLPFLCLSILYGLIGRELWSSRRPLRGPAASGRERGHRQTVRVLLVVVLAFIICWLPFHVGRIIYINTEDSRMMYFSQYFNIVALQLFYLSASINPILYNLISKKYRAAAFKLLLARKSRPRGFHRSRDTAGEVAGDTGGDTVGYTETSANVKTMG

[7] = biological target: Neuronal acetylcholine receptor subunit alpha-4 (Homo sapiens, UniProt P43681)
Neuronal acetylcholine receptor subunit alpha-4, sequence (P43681 whole entry): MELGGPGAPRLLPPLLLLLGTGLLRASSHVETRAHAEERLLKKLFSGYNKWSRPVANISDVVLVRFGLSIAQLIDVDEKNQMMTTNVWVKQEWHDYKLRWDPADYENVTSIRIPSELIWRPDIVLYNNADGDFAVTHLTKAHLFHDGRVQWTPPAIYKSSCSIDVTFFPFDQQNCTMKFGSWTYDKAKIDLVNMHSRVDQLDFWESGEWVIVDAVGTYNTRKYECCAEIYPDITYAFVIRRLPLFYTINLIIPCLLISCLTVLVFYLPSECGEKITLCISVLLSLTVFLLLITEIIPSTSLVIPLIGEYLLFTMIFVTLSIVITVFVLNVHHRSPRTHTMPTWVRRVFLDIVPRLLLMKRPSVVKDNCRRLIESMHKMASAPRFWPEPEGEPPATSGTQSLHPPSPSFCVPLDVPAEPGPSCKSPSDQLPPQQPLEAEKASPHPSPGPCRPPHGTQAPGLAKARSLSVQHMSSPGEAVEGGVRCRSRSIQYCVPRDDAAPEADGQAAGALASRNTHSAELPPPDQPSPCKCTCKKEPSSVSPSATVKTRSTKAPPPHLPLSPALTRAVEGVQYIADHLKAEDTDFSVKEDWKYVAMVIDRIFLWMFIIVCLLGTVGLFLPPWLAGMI

[8] = biological target: T5, Gastrin/cholecystokinin type B receptor (Homo sapiens, UniProt P32239)
T5 sequence (P32239 whole entry): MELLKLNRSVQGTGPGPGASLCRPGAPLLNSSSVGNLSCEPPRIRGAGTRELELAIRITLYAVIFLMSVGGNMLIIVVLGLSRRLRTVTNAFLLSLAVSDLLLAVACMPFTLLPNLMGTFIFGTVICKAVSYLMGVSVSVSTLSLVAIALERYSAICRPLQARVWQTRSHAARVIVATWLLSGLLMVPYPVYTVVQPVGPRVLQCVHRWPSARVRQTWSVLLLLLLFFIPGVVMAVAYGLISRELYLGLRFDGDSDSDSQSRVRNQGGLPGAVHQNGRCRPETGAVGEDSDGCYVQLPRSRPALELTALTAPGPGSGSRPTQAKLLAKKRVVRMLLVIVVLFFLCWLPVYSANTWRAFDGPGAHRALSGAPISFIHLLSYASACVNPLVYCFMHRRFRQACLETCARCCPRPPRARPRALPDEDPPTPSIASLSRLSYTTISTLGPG
Also: assay procedure not described here.

| Compound | AC50 [1] | AC50 [2] | AC50 [3] | AC50 [4] | AC50 [5] | AC50 [6] | AC50 [7] | AC50 [8] |
| --- | --- | --- | --- | --- | --- | --- | --- | --- |
| CC(=O)c1ccc(S(=O)(=O)NC(=O)NC2CCCCC2)cc1 [ACETOHEXAMIDE] | > 10 µM | > 10 µM | > 30 µM | > 30 µM | > 10 µM | > 10 µM | > 10 µM |  |
| COc1cc(C)c(/C=C/C(C)=C/C=C/C(C)=C/C(=O)O)c(C)c1C [ACITRETIN] | > 10 µM | > 10 µM | > 30 µM | > 10 µM | 0.517 µM | > 10 µM | > 10 µM |  |
| CCC1(CCC(C)C)C(=O)NC(=O)NC1=O [AMOBARBITAL] | > 10 µM | > 10 µM | > 30 µM | > 10 µM | > 10 µM | > 10 µM | > 10 µM |  |
| COc1ccc(C2C(=O)c3ccccc3C2=O)cc1 [ANISINDIONE] | > 10 µM | > 10 µM | > 30 µM | > 10 µM | 13 µM | > 10 µM | > 10 µM |  |
| O=C(O)c1ccc(NC(=O)[C@H](Cc2ccc(O)cc2)NC(=O)c2ccccc2)cc1 [BENTIROMIDE] | > 10 µM | > 10 µM | > 30 µM | > 10 µM | > 10 µM | > 10 µM | > 10 µM |  |
| NS(=O)(=O)c1cc2c(cc1Cl)N=C(CSCc1ccccc1)NS2(=O)=O [BENZTHIAZIDE] | > 10 µM | > 10 µM | > 30 µM | > 10 µM | > 10 µM | > 10 µM | > 10 µM |  |
| CO/N=C(\C(=O)N[C@@H]1C(=O)N2C(C(=O)O)=CCS[C@H]12)c1csc(N)n1 [CEFTIZOXIME] | > 30 µM | > 10 µM |  | > 30 µM | > 30 µM | > 30 µM | > 30 µM | > 30 µM |
| CC(C)[C@@H](C)/C=C/[C@@H](C)[C@H]1CC[C@H]2/C(=C/C=C3\C[C@@H](O)CC[C@@H]3C)CCC[C@]12C [DIHYDROTACHYSTEROL] | > 10 µM | > 10 µM | > 30 µM | > 10 µM | > 10 µM | > 10 µM | > 10 µM |  |
| CC(C)NC[C@H](O)COc1ccc(CC(N)=O)cc1 [ESATENOLOL] |  | > 30 µM | > 10 µM | > 10 µM | > 30 µM | > 10 µM |  | > 30 µM |
| CC(=O)[C@H]1CC[C@H]2[C@@H]3C[C@H](C)C4=CC(=O)CC[C@]4(C)[C@H]3[C@@H](O)C[C@]12C [MEDRYSONE] | > 10 µM | > 10 µM | > 30 µM | > 10 µM | > 10 µM | > 10 µM | > 10 µM |  |
| CCCC(C)(COC(N)=O)COC(N)=O [MEPROBAMATE] | > 10 µM | > 10 µM | > 30 µM | > 10 µM | > 10 µM | > 10 µM | > 10 µM |  |
| COc1ccc2cc(CCC(C)=O)ccc2c1 [NABUMETONE] | > 10 µM | > 10 µM | > 30 µM | > 10 µM | > 10 µM | > 10 µM | > 10 µM |  |
| Cc1ccnc2c1NC(=O)c1cccnc1N2C1CC1 [NEVIRAPINE] | > 10 µM | > 30 µM | > 10 µM | > 10 µM | > 30 µM | > 10 µM |  | > 30 µM |
| O=C(c1cc(Cc2n[nH]c(=O)c3ccccc23)ccc1F)N1CCN(C(=O)C2CC2)CC1 [OLAPARIB] | > 10 µM | > 30 µM | > 30 µM | > 10 µM | > 30 µM | > 30 µM | > 30 µM |  |
| CO[C@H]1C[C@H](O[C@H]2CC[C@@]3(C)[C@H](CC[C@@H]4[C@@H]3CC[C@]3(C)[C@@H](C5=CC(=O)OC5)[C@@H](OC(C)=O)C[C@]43O)C2)O[C@@H](C)[C@@H]1O [OLEANDRIN] | > 30 µM |  | > 30 µM | > 30 µM |  |  |  |  |
| Fc1ccc([C@@H]2CCNC[C@H]2COc2ccc3c(c2)OCO3)cc1 [PAROXETINE] |  | > 30 µM | > 10 µM | 17 µM | > 30 µM | > 10 µM | > 10 µM | > 30 µM |
| NC(=O)NC(=O)Cc1ccccc1 [PHENACEMIDE] | > 10 µM | > 10 µM | > 30 µM | > 10 µM | > 10 µM | > 10 µM | > 10 µM |  |
| CCCN(CCC)S(=O)(=O)c1ccc(C(=O)O)cc1 [PROBENECID] | > 10 µM | > 10 µM | > 30 µM | > 10 µM | > 10 µM | > 10 µM | > 10 µM |  |
| CCc1nc(N)nc(N)c1-c1ccc(Cl)cc1 [PYRIMETHAMINE] | > 10 µM | > 10 µM | > 30 µM | 18 µM | > 10 µM | > 10 µM | > 10 µM |  |
| CC1=C(/C=C/C(C)=C/C=C/C(C)=C/CO)C(C)(C)CCC1 [RETINOL] | > 10 µM | > 10 µM | > 30 µM | > 10 µM | > 10 µM | > 10 µM | > 10 µM |  |
| Cc1cc(C)nc(NS(=O)(=O)c2ccc(N)cc2)n1 [SULFAMETHAZINE] | > 10 µM | > 10 µM | > 30 µM | > 10 µM | > 10 µM | > 10 µM | > 10 µM |  |
| CCOC(=O)[C@@H](N)Cc1ccc(-c2cc(O[C@H](c3ccc(Cl)cc3-n3ccc(C)n3)C(F)(F)F)nc(N)n2)cc1 [TELOTRISTAT ETHYL] | > 30 µM | > 30 µM | > 30 µM |  | > 30 µM |  | > 30 µM | > 30 µM |
| CCCCCCCC(=O)CC[C@@H]1[C@@H](C/C=C\CCCC(=O)OC(C)C)[C@@H](O)C[C@H]1O [UNOPROSTONE ISOPROPYL] |  |  | > 30 µM |  | > 30 µM |  |  |  |
| CC(c1cc2ccccc2s1)N(O)C(N)=O (configuration not stated) [ZILEUTON] | > 10 µM | > 10 µM | > 30 µM | > 10 µM | > 30 µM | > 10 µM | > 10 µM |  |
